The term IC50 denotes the concentration that gives 50% inhibition.

SMILES strings stand for the structures. Where a name gives a salt, the structure may show the parent alone. Read-outs that look alike come from different tables or passages of the source.

Our source for the IC50 values is patent US10479795B2 (Incyte Corporation, priority 2016, dated 2019).

For experiment [1], the target named is PI3Kγ (p110γ) Recombinant Human Protein (Homo sapiens (Human), UniProt P48736). Nature of the experiment: PI3K-γ Scintillation Proximity Assay. The format is biochemical. The following applies: read-out: PI3Kγ IC50. Put shortly:
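Radiometric SPA readout: […] bound to WGA beads after overnight shaking, IC50 derived from % activity of DMSO control. Reaction used human p110γ, 2 μM ATP, 20 μM PIP2, pH 6.7 MOPS buffer with MgCl2, DTT, CHAPS, 2% DMSO, room temperature.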

Experiment [2] has as its target PI3Kδ (p110δ/p85α) Recombinant Human Protein (Homo sapiens (Human), UniProt O00329). Put plainly: PI3Kδ Scintillation Proximity Assay. The class given is biochemical. Put shortly: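 IC50 was fitted to percent solvent-control activity from SPA scintillation counts after WGA bead capture of 33P-labelled lipid product. Reaction: 120 min, room temperature, 3.4 nM p110δ/p85α, 20 μM PIP2, 2 μM ATP with tracer, MOPS pH 6.7 buffer containing MgCl2, DTT, CHAPS, 2% DMSO.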
In general terms: SPA uses beads or plates that emit light when radiolabelled molecules are held near them.

Experiment [3] concerns Phosphorylated Ribosomal Protein S6 (RPS6). Put plainly: THP-1 RPS6 ELISA Assay. The class given is cell-based, Human. Conditions: THP-1 cells, read-out: PI3Kγ_THP1_RPS6_ELISA IC50. In outline:
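IC50 values come from a curve of percent inhibition against log compound concentration, using phospho-RPS6 ELISA (450 nm) on THP-1 lysates. Cells were serum-starved overnight, exposed to compound for 2 h at 37 °C, then challenged 15 min with 10 nM MCP-1.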
On the technique in general: ELISA stands for enzyme-linked immunosorbent assay.

Sequence of PI3Kδ (p110δ/p85α) Recombinant Human Protein (O00329 whole entry): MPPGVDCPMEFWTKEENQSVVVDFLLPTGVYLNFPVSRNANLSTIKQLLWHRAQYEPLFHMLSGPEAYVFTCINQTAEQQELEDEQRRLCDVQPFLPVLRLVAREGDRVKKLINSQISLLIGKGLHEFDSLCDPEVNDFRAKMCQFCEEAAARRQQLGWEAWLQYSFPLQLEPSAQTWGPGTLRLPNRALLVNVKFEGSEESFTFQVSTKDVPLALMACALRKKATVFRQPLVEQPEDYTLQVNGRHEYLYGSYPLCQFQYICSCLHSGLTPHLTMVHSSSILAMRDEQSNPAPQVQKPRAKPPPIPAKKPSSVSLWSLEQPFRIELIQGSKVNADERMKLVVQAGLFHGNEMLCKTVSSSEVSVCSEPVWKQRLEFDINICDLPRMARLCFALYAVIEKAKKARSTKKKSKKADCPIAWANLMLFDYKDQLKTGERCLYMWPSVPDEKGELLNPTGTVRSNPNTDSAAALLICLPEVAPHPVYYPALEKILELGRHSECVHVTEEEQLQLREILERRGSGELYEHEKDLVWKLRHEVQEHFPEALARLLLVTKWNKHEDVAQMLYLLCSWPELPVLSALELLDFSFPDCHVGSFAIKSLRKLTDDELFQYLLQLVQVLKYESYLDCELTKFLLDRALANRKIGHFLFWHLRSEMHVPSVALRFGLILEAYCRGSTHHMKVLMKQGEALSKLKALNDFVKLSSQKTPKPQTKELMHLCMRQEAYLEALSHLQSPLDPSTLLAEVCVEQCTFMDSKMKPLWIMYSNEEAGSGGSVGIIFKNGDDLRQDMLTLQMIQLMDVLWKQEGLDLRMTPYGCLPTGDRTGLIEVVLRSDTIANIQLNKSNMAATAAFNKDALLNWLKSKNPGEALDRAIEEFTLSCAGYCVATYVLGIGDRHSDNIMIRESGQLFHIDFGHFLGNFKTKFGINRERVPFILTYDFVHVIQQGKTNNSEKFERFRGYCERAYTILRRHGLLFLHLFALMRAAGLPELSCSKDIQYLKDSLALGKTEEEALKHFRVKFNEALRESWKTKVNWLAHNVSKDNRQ
Sequence of PI3Kδ (p110δ/p85α) Recombinant Human Protein (P27986 whole entry partner): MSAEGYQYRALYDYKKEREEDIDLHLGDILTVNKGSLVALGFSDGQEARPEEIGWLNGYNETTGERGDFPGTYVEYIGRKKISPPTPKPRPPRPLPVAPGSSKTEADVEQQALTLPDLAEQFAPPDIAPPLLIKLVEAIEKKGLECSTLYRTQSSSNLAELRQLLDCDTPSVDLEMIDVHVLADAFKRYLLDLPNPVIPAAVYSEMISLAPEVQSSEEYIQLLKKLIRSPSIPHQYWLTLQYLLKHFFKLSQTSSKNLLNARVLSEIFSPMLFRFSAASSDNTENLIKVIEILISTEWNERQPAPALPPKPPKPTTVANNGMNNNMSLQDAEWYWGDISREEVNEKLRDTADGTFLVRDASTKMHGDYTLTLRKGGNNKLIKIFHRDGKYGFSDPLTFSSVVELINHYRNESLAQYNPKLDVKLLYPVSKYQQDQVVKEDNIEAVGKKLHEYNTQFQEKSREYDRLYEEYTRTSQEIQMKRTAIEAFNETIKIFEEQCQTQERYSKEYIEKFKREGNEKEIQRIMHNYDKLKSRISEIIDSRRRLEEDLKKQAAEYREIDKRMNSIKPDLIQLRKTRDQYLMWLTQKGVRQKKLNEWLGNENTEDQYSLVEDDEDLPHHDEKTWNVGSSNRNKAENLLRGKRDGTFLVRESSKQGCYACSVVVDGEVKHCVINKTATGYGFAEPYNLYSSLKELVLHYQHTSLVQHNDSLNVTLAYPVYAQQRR
Sequence of PI3Kγ (p110γ) Recombinant Human Protein (P48736 whole entry): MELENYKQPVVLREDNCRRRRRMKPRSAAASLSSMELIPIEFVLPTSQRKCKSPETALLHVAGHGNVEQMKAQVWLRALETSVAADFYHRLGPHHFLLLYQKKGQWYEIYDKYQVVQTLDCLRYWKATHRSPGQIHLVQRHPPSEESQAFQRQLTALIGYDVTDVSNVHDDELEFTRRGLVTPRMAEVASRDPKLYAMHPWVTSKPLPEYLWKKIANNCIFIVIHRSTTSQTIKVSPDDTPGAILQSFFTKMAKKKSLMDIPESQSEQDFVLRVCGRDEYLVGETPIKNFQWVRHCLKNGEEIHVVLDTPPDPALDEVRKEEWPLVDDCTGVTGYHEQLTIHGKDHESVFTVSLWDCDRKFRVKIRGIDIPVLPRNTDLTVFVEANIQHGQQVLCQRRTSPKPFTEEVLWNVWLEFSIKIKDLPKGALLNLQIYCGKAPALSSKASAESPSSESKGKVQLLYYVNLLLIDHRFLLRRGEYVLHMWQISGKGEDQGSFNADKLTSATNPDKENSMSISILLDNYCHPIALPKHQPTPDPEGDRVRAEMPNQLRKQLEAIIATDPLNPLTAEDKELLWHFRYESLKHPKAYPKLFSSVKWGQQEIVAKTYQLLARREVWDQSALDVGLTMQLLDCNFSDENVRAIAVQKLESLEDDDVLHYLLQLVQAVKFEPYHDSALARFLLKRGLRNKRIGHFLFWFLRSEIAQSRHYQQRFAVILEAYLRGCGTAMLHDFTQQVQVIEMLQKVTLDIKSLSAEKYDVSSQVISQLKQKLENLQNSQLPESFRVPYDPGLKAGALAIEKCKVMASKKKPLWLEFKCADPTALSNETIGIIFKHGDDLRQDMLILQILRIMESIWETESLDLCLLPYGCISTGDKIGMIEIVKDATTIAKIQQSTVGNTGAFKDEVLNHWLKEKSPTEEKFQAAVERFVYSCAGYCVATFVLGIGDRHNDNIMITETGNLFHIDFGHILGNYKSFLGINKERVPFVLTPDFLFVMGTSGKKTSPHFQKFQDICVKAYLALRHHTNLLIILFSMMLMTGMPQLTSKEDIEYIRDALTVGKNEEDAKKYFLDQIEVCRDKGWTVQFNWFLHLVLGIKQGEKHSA

For `COc1nccc(-c2cn3c(-c4cc(S(C)(=O)=O)ccc4C)cnc3c(N)n2)c1F` [Example 483, 6-(3-Fluoro-2-methoxypyridin-4-yl)-3-(2-methyl-5-(methylsulfonyl)phenyl)imidazo[1,2-a]pyrazin-8-amine trifluoroacetate], the results for the IC50 in experiment [1], in experiment [2] and in experiment [3] (Homo sapiens) were less than 100 nM, less than 100 nM and greater than 1000 nM, respectively.
As for `Cc1ccc(S(C)(=O)=O)cc1-c1cnc2c(N)nc(-c3ccncc3Cl)cn12` [Example 484, 6-(3-Chloropyridin-4-yl)-3-(2-methyl-5-(methylsulfonyl)phenyl)imidazo[1,2-a]pyrazin-8-amine trifluoroacetate], the values for the IC50 in experiment [1], in experiment [2] and in experiment [3] (Homo sapiens) were less than 100 nM, 100 to 500 nM and 100 to 500 nM, respectively.
For `COc1cnccc1-c1cn2c(-c3cc(S(C)(=O)=O)ccc3C)cnc2c(N)n1` [Example 485, 6-(3-Methoxypyridin-4-yl)-3-(2-methyl-5-(methylsulfonyl)phenyl)imidazo[1,2-a]pyrazin-8-amine trifluoroacetate], the IC50 in experiment [1] was less than 100 nM; in experiment [2], 100 to 500 nM; in experiment [3] (Homo sapiens) it was 100 to 500 nM.
On to `Cc1ccc(S(C)(=O)=O)cc1-c1cnc2c(N)nc(-c3cccc(OCC#N)c3)cn12` [Example 486, 2-(3-(8-Amino-3-(2-methyl-5-(methylsulfonyl)phenyl)imidazo[1,2-a]pyrazin-6-yl)phenoxy)acetonitrile trifluoroacetate], for which the IC50 is less than 100 nM in experiment [1], 100 to 500 nM in experiment [2] and 100 to 500 nM in experiment [3] (Homo sapiens).
Take `Cc1ccc(S(C)(=O)=O)cc1-c1cnc2c(N)nc(-c3ccc(C(C)O)cc3F)cn12` (stereo not drawn) [Example 488, 1-(4-(8-Amino-3-(2-methyl-5-(methylsulfonyl)phenyl)imidazo[1,2-a]pyrazin-6-yl)-3-fluorophenyl)ethan-1-ol]: the IC50 in experiment [1] was less than 100 nM; in experiment [2], 100 to 500 nM; in experiment [3] (Homo sapiens), 100 to 500 nM.
With `Cc1cc(-c2cn3c(-c4cc(S(C)(=O)=O)ccc4C)cnc3c(N)n2)c(F)cn1` [Example 489, 6-(5-Fluoro-2-methylpyridin-4-yl)-3-(2-methyl-5-(methylsulfonyl)phenyl)imidazo[1,2-a]pyrazin-8-amine trifluoroacetate], the IC50 is less than 100 nM in experiment [1], 100 to 500 nM in experiment [2] and 100 to 500 nM in experiment [3] (Homo sapiens).
For the compound `COc1nc(CO)ccc1-c1cn2c(-c3cc(S(C)(=O)=O)ccc3C)cnc2c(N)n1` [Example 490, (5-(8-Amino-3-(2-methyl-5-(methylsulfonyl)phenyl)imidazo[1,2-a]pyrazin-6-yl)-6-methoxypyridin-2-yl)methanol trifluoroacetate], the IC50 is less than 100 nM in experiment [1], 100 to 500 nM in experiment [2] and less than 100 nM in experiment [3] (Homo sapiens).
As to `COc1cn[nH]c1-c1cn2c(-c3cc(S(C)(=O)=O)ccc3C)cnc2c(N)n1` [Example 491, 6-(4-Methoxy-1H-pyrazol-5-yl)-3-(2-methyl-5-(methylsulfonyl)phenyl)imidazo[1,2-a]pyrazin-8-amine trifluoroacetate], the IC50 in experiment [1] was less than 100 nM; in experiment [2] it was 100 to 500 nM; in experiment [3] (Homo sapiens), 100 to 500 nM.
In the case of `Cc1ccc(S(=O)(=O)CC2CCOCC2)cc1-c1cnc2c(N)ncnn12` [Example 492, 7-(2-Methyl-5-(((tetrahydro-2H-pyran-4-yl)methyl)sulfonyl)phenyl)imidazo[2,1-f][1,2,4]triazin-4-amine trifluoroacetate], the IC50 in experiment [1] was less than 100 nM; in experiment [2], 500 to 2000 nM; in experiment [3] (Homo sapiens), 500 to 1000 nM.
Take `Cc1ccc(S(=O)(=O)CCC(F)(F)F)cc1-c1cnc2c(N)ncnn12` [Example 493, 7-(2-Methyl-5-((3,3,3-trifluoropropyl)sulfonyl)phenyl)imidazo[2,1-f][1,2,4]triazin-4-amine trifluoroacetate]: the IC50 in experiment [1] is 100 to 500 nM; in experiment [2], greater than 2000 nM; in experiment [3] (Homo sapiens), greater than 1000 nM.
For the compound `Cc1ccc(S(=O)(=O)CCC(C)O)cc1-c1cnc2c(N)nc(C(F)(F)F)cn12` (stereo not drawn) [Example 494, 4-((3-(8-Amino-6-(trifluoromethyl)imidazo[1,2-a]pyrazin-3-yl)-4-methylphenyl)sulfonyl)butan-2-ol], the IC50 is less than 100 nM in experiment [1], 500 to 2000 nM in experiment [2] and greater than 1000 nM in experiment [3] (Homo sapiens).
On to `Cc1ccc(S(=O)(=O)CCC(C)(C)O)cc1-c1cnc2c(N)nc(C(F)(F)F)cn12` [Example 495, 4-((3-(8-Amino-6-(trifluoromethyl)imidazo[1,2-a]pyrazin-3-yl)-4-methylphenyl)sulfonyl)-2-methylbutan-2-ol], for which the IC50 in experiment [1] is less than 100 nM; in experiment [2], 500 to 2000 nM; in experiment [3], greater than 1000 nM.
On to `Cc1ccc(S(=O)(=O)CC(C)O)cc1-c1cnc2c(N)nc(C(F)(F)F)cn12` (stereo not drawn) [Example 496, 1-((3-(8-Amino-6-(trifluoromethyl)imidazo[1,2-a]pyrazin-3-yl)-4-methylphenyl)sulfonyl)propan-2-ol trifluoroacetate], for which the IC50 is less than 100 nM in experiment [1], 500 to 2000 nM in experiment [2] and 500 to 1000 nM in experiment [3] (Homo sapiens).
As to `Cc1ccc(S(=O)(=O)CC2CC(F)(F)C2)cc1-c1cnc2c(N)ncnn12` [Example 500, 7-(5-(((3,3-Difluorocyclobutyl)methyl)sulfonyl)-2-methylphenyl)imidazo[2,1-f][1,2,4]triazin-4-amine], the figures for the IC50 in experiment [1], in experiment [2] and in experiment [3] (Homo sapiens) were less than 100 nM, 500 to 2000 nM and 100 to 500 nM, respectively.
In the case of `COc1ncccc1-c1cn2c(-c3cc(S(=O)(=O)C(C)(C)C(C)O)ccc3C)cnc2c(N)n1` (stereo not drawn) [Example 502, 3-((3-(8-Amino-6-(2-methoxypyridin-3-yl)imidazo[1,2-a]pyrazin-3-yl)-4-methylphenyl)sulfonyl)-3-methylbutan-2-ol trifluoroacetate], the figures for the IC50 in experiment [1], in experiment [2] and in experiment [3] (Homo sapiens) were less than 100 nM, less than 100 nM and 100 to 500 nM, respectively.
As to `Cc1ccc(S(=O)(=O)CC2(O)CCC2)cc1-c1cnc2c(N)nc(-c3ccncc3F)cn12` [Example 503, 1-(((3-(8-Amino-6-(3-fluoropyridin-4-yl)imidazo[1,2-a]pyrazin-3-yl)-4-methylphenyl)sulfonyl)methyl)cyclobutan-1-ol], the IC50 was less than 100 nM in experiment [1], less than 100 nM in experiment [2] and 100 to 500 nM in experiment [3] (Homo sapiens).
For the compound `Cc1ccc(S(=O)(=O)N[C@H]2CC[C@H](O)CC2)cc1-c1cnc2c(N)nc(C(C)C)cn12` [Example 504, 3-(8-Amino-6-isopropylimidazo[1,2-a]pyrazin-3-yl)-N-(trans-4-hydroxycyclohexyl)-4-methylbenzenesulfonamide], the IC50 in experiment [1], in experiment [2] and in experiment [3] (Homo sapiens) was less than 100 nM in each case.
For the compound `Cc1cn2c(-c3cc(S(=O)(=O)N[C@H]4CC[C@](C)(O)CC4)ccc3C)cnc2c(N)n1` [Example 505, 3-(8-Amino-6-methylimidazo[1,2-a]pyrazin-3-yl)-N-((1r,4r)-4-hydroxy-4-methylcyclohexyl)-4-methylbenzenesulfonamide], the IC50 in experiment [1] is less than 100 nM; in experiment [2] it was less than 100 nM; in experiment [3] (Homo sapiens) it was 100 to 500 nM.
Regarding `Cc1ccc(S(=O)(=O)N2CC[C@H](O)C2)cc1-c1cnc2c(N)nc(-c3ccc(CO)cc3F)cn12` [Example 506, (S)-1-((3-(8-Amino-6-(2-fluoro-4-(hydroxymethyl)phenyl)imidazo[1,2-a]pyrazin-3-yl)-4-methylphenyl)sulfonyl)pyrrolidin-3-ol], the IC50 in experiment [1], in experiment [2] and in experiment [3] (Homo sapiens) was less than 100 nM throughout.
Consider `[2H][C@]1(NS(=O)(=O)c2ccc(C)c(-c3cnc4c(N)ncnn34)c2)CC[C@@](C)(O)CC1` [Example 507, 3-(4-Aminoimidazo[2,1-f][1,2,4]triazin-7-yl)-N-((1s,4s)-4-hydroxy-4-methylcyclohexyl-1-d)-4-methylbenzenesulfonamide], for which the IC50 is less than 100 nM in experiment [1], 100 to 500 nM in experiment [2] and 500 to 1000 nM in experiment [3] (Homo sapiens).
As to `[2H][C@]1(NS(=O)(=O)c2ccc(C)c(-c3cnc4c(N)ncnn34)c2)CC[C@](C)(O)CC1` [Example 508, 3-(4-Aminoimidazo[2,1-f][1,2,4]triazin-7-yl)-N-((1r,4r)-4-hydroxy-4-methylcyclohexyl-1-d)-4-methylbenzenesulfonamide trifluoroacetate], the IC50 in experiment [1] is less than 100 nM; in experiment [2], 100 to 500 nM; in experiment [3] (Homo sapiens), 500 to 1000 nM.
As for `CCOC(=O)C1CCCN(S(=O)(=O)c2ccc(C)c(-c3cnc4c(N)nc(C(F)(F)F)cn34)c2)C1` (stereo not drawn) [Example 509, Ethyl 1-((3-(8-amino-6-(trifluoromethyl)imidazo[1,2-a]pyrazin-3-yl)-4-methylphenyl)sulfonyl)piperidine-3-carboxylate], the figures for the IC50 in experiment [1], in experiment [2] and in experiment [3] (Homo sapiens) were less than 100 nM, 500 to 2000 nM and greater than 1000 nM, respectively.
In the case of `Cc1ccc(S(=O)(=O)N2CCCC(C(=O)O)C2)cc1-c1cnc2c(N)nc(C(F)(F)F)cn12` (stereo not drawn) [Example 510, 1-((3-(8-Amino-6-(trifluoromethyl)imidazo[1,2-a]pyrazin-3-yl)-4-methylphenyl)sulfonyl)piperidine-3-carboxylic acid trifluoroacetate], the IC50 in experiment [1] was less than 100 nM; in experiment [2] it was 100 to 500 nM; in experiment [3] (Homo sapiens) it was greater than 1000 nM.
